Results reported in the NIST ThermoML archive (doi:10.1021/acs.jced.7b01053).
Several values for one entry are separate records, joined by “and”; a condition that tells them apart may be missing. Identical values can stand only once. Numbers after ± are expanded uncertainties.

Experiment: mn = molality of the nth substance listed, in mol/kg
Conditions: 293 K, 100 kPa, Liquid, Alternating current cell with electrodes

CC(=O)[O-].OCC[NH2+]CCO [2,2'-azanediylbis(ethanol) acetate] + O
Conditions	electrical conductivity
m1 = 0.02102	0.103 ± 0.01 S/m
m1 = 0.02229	0.092 ± 0.011 S/m
m1 = 0.0413	0.189 ± 0.011 S/m
m1 = 0.04556	0.185 ± 0.011 S/m
m1 = 0.06489	0.299 ± 0.021 S/m
m1 = 0.06982	0.299 ± 0.021 S/m
m1 = 0.08642	0.38 ± 0.027 S/m
m1 = 0.0929	0.387 ± 0.027 S/m
m1 = 0.11	0.471 ± 0.034 S/m
m1 = 0.1182	0.481 ± 0.035 S/m
m1 = 0.133	0.551 ± 0.042 S/m
m1 = 0.1442	0.574 ± 0.044 S/m
m1 = 0.1566	0.637 ± 0.051 S/m
m1 = 0.17	0.664 ± 0.053 S/m
m1 = 0.1784	0.715 ± 0.059 S/m
m1 = 0.1932	0.749 ± 0.063 S/m
m1 = 0.2015	0.79 ± 0.068 S/m
m1 = 0.2176	0.822 ± 0.072 S/m
m1 = 0.2233	0.87 ± 0.078 S/m
m1 = 0.2404	0.892 ± 0.081 S/m
m1 = 0.2459	0.947 ± 0.088 S/m
m1 = 0.2633	0.966 ± 0.094 S/m
m1 = 0.2671	1.01 ± 0.1 S/m
m1 = 0.2853	1.03 ± 0.1 S/m
m1 = 0.2885	1.08 ± 0.11 S/m
m1 = 0.3076	1.11 ± 0.11 S/m
m1 = 0.3083	1.14 ± 0.12 S/m
m1 = 0.3285	1.16 S/m and 1.2 S/m
m1 = 0.3471	1.26 ± 0.14 S/m
m1 = 0.3495	1.22 ± 0.13 S/m
m1 = 0.3658	1.32 ± 0.15 S/m
m1 = 0.3689	1.27 ± 0.14 S/m
m1 = 0.3832	1.37 ± 0.15 S/m
m1 = 0.3886	1.33 ± 0.15 S/m
m1 = 0.4004	1.42 ± 0.16 S/m
m1 = 0.4068	1.38 ± 0.15 S/m
m1 = 0.4163	1.46 ± 0.17 S/m
m1 = 0.4248	1.43 ± 0.16 S/m
m1 = 0.4322	1.51 ± 0.18 S/m
m1 = 0.4417	1.47 ± 0.17 S/m
m1 = 0.4472	1.55 ± 0.19 S/m
m1 = 0.4583	1.51 ± 0.18 S/m
m1 = 0.4617	1.59 ± 0.19 S/m
m1 = 0.4738	1.56 ± 0.19 S/m
m1 = 0.4751	1.64 ± 0.2 S/m
m1 = 0.4881	1.68 ± 0.21 S/m
m1 = 0.489	1.61 ± 0.2 S/m
m1 = 0.5005	1.73 ± 0.23 S/m
m1 = 0.5032	1.65 ± 0.2 S/m
m1 = 0.5129	1.76 ± 0.23 S/m
m1 = 0.5172	1.68 ± 0.21 S/m
m1 = 0.5243	1.8 ± 0.23 S/m
m1 = 0.5302	1.7 ± 0.22 S/m
m1 = 0.5355	1.83 ± 0.24 S/m
m1 = 0.5436	1.73 ± 0.22 S/m
m1 = 0.5561	1.76 ± 0.23 S/m

CCCCC(=O)[O-].C[NH2+]CCO [2-hydroxy-N-methylethanaminium pentanoate] + O
Conditions	electrical conductivity [S/m]
m1 = 0.01138	0.049 ± 0.01
m1 = 0.01396	0.062 ± 0.011
m1 = 0.02431	0.098 ± 0.009
m1 = 0.02742	0.113 ± 0.009
m1 = 0.03923	0.149 ± 0.014
m1 = 0.0421	0.165 ± 0.011
m1 = 0.05224	0.191 ± 0.013
m1 = 0.05579	0.209 ± 0.023
m1 = 0.0607	0.269 ± 0.017
m1 = 0.06705	0.238 ± 0.015
m1 = 0.08075	0.293 ± 0.023
m1 = 0.08328	0.31 ± 0.024
m1 = 0.09553	0.335 ± 0.022
m1 = 0.09605	0.33 ± 0.022
m1 = 0.1092	0.375 ± 0.027
m1 = 0.1095	0.408 ± 0.029
m1 = 0.1224	0.445 ± 0.032
m1 = 0.124	0.416 ± 0.029
m1 = 0.1358	0.479 ± 0.035
m1 = 0.1372	0.449 ± 0.032
m1 = 0.1484	0.513 ± 0.046
m1 = 0.1505	0.485 ± 0.043
m1 = 0.1608	0.544 ± 0.055
m1 = 0.1632	0.498 ± 0.037
m1 = 0.1727	0.572 ± 0.044
m1 = 0.1759	0.527 ± 0.039
m1 = 0.1844	0.597 ± 0.046
m1 = 0.1879	0.551 ± 0.042
m1 = 0.1947	0.612 ± 0.048
m1 = 0.1999	0.578 ± 0.044
m1 = 0.2059	0.635 ± 0.05
m1 = 0.2113	0.602 ± 0.047
m1 = 0.2164	0.656 ± 0.052
m1 = 0.2226	0.62 ± 0.048
m1 = 0.226	0.677 ± 0.055
m1 = 0.2329	0.642 ± 0.051
m1 = 0.2359	0.697 ± 0.057
m1 = 0.2427	0.663 ± 0.053
m1 = 0.2451	0.709 ± 0.058
m1 = 0.2523	0.682 ± 0.055
m1 = 0.2541	0.727 ± 0.06
m1 = 0.262	0.701 ± 0.057
m1 = 0.2625	0.744 ± 0.062
m1 = 0.2703	0.76 ± 0.064
m1 = 0.2709	0.717 ± 0.059
m1 = 0.2783	0.776 ± 0.067
m1 = 0.2797	0.735 ± 0.062
m1 = 0.2853	0.79 ± 0.068
m1 = 0.2882	0.75 ± 0.063
m1 = 0.2929	0.804 ± 0.069
m1 = 0.2964	0.766 ± 0.065
m1 = 0.2998	0.818 ± 0.071
m1 = 0.304	0.781 ± 0.067
m1 = 0.3065	0.83 ± 0.073
m1 = 0.3114	0.794 ± 0.068
m1 = 0.3129	0.842 ± 0.074
m1 = 0.3184	0.808 ± 0.07
m1 = 0.3191	0.853 ± 0.076
m1 = 0.3249	0.868 ± 0.077
m1 = 0.3255	0.819 ± 0.071
m1 = 0.3307	0.88 ± 0.08
m1 = 0.3317	0.834 ± 0.074
m1 = 0.336	0.893 ± 0.091
m1 = 0.3378	0.847 ± 0.084
m1 = 0.3413	1.04 ± 0.1
m1 = 0.3437	0.858 ± 0.083
m1 = 0.3493	0.87 ± 0.078
m1 = 0.3546	0.882 ± 0.079
